In a melting point compilation (Tetko et al.; mined from patent text by program, amines drawn as free bases though some values may be those of a salt):

For `O=C(NCCc1ccc(O)c(O)c1)OCc1ccccc1`, the melting point was 129 to 130 °C.
`Cc1nc2cc(-c3ccccc3)nn2c2c1CCN2C(C)(C)C` gave a melting point of 244 to 248 °C.
Molecule `Nc1ccc(Cl)c(Cl)c1Br` has a melting point of 78 to 80 °C.
`Cc1ccccc1Cc1n[nH]c2c1c(=O)n(-c1cccc(C(F)(F)F)c1)c1ncccc21` showed a melting point of 249 to 252 °C.
Molecule `COc1ccc(CC(=O)CCCCCBr)cc1` has a melting point of 41 to 43 °C.
For `CC(=O)OC1CSC(Oc2cncc(-c3ccc(C#N)nc3)c2)C(OC(C)=O)C1OC(C)=O` (stereo not given), the melting point was 142 to 151 °C.
In the case of `CC#CC1CCC(C2CCC(c3ccc(CCC)cc3)CC2)CC1` (stereo not given), the melting point is reported as 70 °C.
Work on `Cc1ccc2c(c1)NC(=O)CO2` yielded a melting point of 204 to 205 °C.
Work on `CN1CCC(c2cc(-c3ccncc3)c(-c3cccc(C(F)(F)F)c3)nn2)CC1` yielded a melting point of 188 to 189 °C.
Work on `COc1ccc(N2N=C3c4ccccc4SCCC3CC2=O)cc1` (stereo not given) yielded a melting point of 143 to 145 °C.
`CCOC(=O)N1CCCc2cc(C(=O)CCCl)ccc21` gave a melting point of 78 to 79 °C.
`CCOCc1nc2c(N)nc3ccccc3c2n1Cc1cc(-c2cccnc2)no1` gave a melting point of 240 to 242 °C.
In the case of `O=Nc1c(-c2ccc(Cl)cc2)nc2sc3ccccc3n12`, the melting point is reported as 203 to 206 °C.
`COc1ccc(CNc2nc(SC)nc(OC)c2C(=O)O)cc1Cl` gave a melting point of 167 to 170 °C.
Work on `Cn1c(=O)on(-c2cc(F)ccc2F)c1=O` yielded a melting point of 66 to 68 °C.
`COc1ccc(-c2ccc(C(=O)Nc3ccc4cc(CN5CCCCCC5)cnc4c3C)cc2)cc1` gave a melting point of 165 to 167 °C.
For `CC(C)c1ncc(CCCOc2nn(C)cc2CC(=O)O)c(Oc2ccc(Cl)cc2Cl)n1`, the melting point was 107 to 108 °C.
`CCOC(=O)/C=C/C=C/C(=O)c1cc2c(cc1C)C(C)(C)CCC2(C)C` showed a melting point of 101 to 102 °C.
`CCCC(=O)NCCCn1c(C)nc2c(N)nc3ccccc3c21` showed a melting point of 222 to 223 °C.
`N#Cc1cc(C#N)cc(OC(C(=O)C2CC2)C(=O)C2CC2)c1` showed a melting point of 135 to 137 °C.
`Cc1cc(C)n(-c2ccc(N3CCOCC3)nn2)n1` gave a melting point of 119 to 121 °C.
With `NC(=O)C1=NN(c2cccc(COCC3CCCCC3)c2)C(c2ccccc2F)N1` (stereo not given) the melting point was 148 to 149 °C.
Molecule `Nc1c(I)cc(Cl)cc1I` has a melting point of 127 to 129 °C.
`C[C@@H]1N=C(c2ccccc2F)c2cc([N+](=O)[O-])ccc2N(C)C1=O` showed a melting point of 95 to 110 °C.
`COc1ccc([C@H]2SC(c3ccccc3)=C(C)N(CCN(C)C)C(=O)[C@H]2OC(C)=O)cc1` gave a melting point of 90 to 92 °C.
With `CCOC(=O)c1ccc(-c2nc(C(=O)OCC)ns2)cc1` the melting point was 66 to 67.5 °C.
In the case of `Nc1ncc(-c2ccccc2COC2CCCCC2)s1`, the melting point is reported as 102 °C.
For `COc1ccc(C=Cc2nc3c([nH]2)c(=O)n(C)c(=O)n3C)cc1OC`, the melting point was > 320 °C.
`C=C(C)Cn1ncc(Cl)c(Cl)c1=O` showed a melting point of 52 to 54 °C.
In the case of `Oc1ccc(-c2ncc3ncc(-c4ccsc4)cc3n2)cc1`, the melting point is reported as 248 to 250 °C.
With `C=CCn1c(=O)c2cnc(Nc3ccc(OCCN(CC)CC)cc3)nc2n(C(C)C)c1=O` the melting point was 90 to 96 °C.
For `COc1ccccc1N1CCN(CC(O)COc2ccccc2CN)CC1` (stereo not given), the melting point was 113 to 114 °C.
Work on `Nc1ccc2c(=O)n(Cc3ccccc3)c(=O)n(-c3ccccc3)c2n1` yielded a melting point of 261 to 262 °C.
For `CCCc1c(OCCCCCC(=O)c2ccc3cc(OC)c(OC)cc3c2)ccc(C(=O)O)c1O`, the melting point was 144 to 146 °C.
`CCOc1nn(-c2cc(C(F)(F)F)ccn2)cc1CCCOc1cccc(CC(=O)O)c1` showed a melting point of 128 to 130 °C.
With `CCOC(=O)c1ccc(Oc2ccc(C(C)=C3SCCCS3)cc2)cc1` the melting point was 57 to 58 °C.
For `CN(C)n1cnnc1NN=Cc1c(Cl)cccc1Cl`, the melting point was 189 °C.
With `NC(=O)c1cscc1Br` the melting point was 108 to 110 °C.
With `Clc1ccc(N2CCN(Cc3n[nH]c4ccccc34)CC2)nc1` the melting point was 203 to 204 °C.
With `O=C(Nc1ccc2ccc(Oc3ccccc3)nc2n1)C1CC1` the melting point was 190 °C.
`CCOC(=O)c1[nH]c(Cl)nc1-c1ccccc1` gave a melting point of 128 to 129 °C.
`O=C(O)c1c(-c2ccccc2)nc2c(C(F)(F)F)cccc2c1O` gave a melting point of 204 °C.
Molecule `CC(=O)NCCCCOC1c2ccccc2C(=O)N1c1ccc2ccc(Cl)nc2n1` (stereo not given) has a melting point of 120 °C.
In the case of `CCCn1c(=O)cc(N)n(-c2ccccc2C)c1=O`, the melting point is reported as 226 to 228 °C.
In the case of `Cn1nc(-c2c(F)cccc2Cl)nc1-c1ccc(F)c(-c2ccc(OC(F)(F)F)cc2)c1`, the melting point is reported as 117 to 119 °C.
With `CCOc1c(N)c2c(c(OCC)c1OCC)C(C1c3c(cc4c(c3OC)OCO4)CCN1C)OC2=O` (stereo not given) the melting point was 180 to 182 °C.
`Cc1oc(-c2ccc3ccccc3c2)nc1COc1ccc(CCCC#N)cc1` showed a melting point of 149 to 151 °C.
In the case of `CC1c2ccccc2-c2cc(Br)ccc2N1S(=O)(=O)c1ccc(O)cc1` (stereo not given), the melting point is reported as 201 to 203 °C.
`COc1ccc(CNC(=O)[C@@H](NC(=O)[C@H](NCc2ccc(OC)c(OC)c2)[C@H](O)[C@H](Cc2ccccc2)NC(=O)OC(C)(C)C)C(C)C)c(O)c1` gave a melting point of 144 °C.
Molecule `COC(=S)c1ccc(C)c(C2=NOCC2)c1C` has a melting point of 109 to 111 °C.
Work on `O=C(O)/C=C/c1cc([N+](=O)[O-])ccc1O` yielded a melting point of 265 to 267 °C.
`CCC1=CC=CC(CC)(c2ccncc2)C1c1c(OC(=O)C(C)(C)C)n2n(c1=O)CCOCC2` (stereo not given) gave a melting point of 146 to 147 °C.
Work on `Cc1ccc2cccc(OCC(=O)c3ccc(Cl)cc3)c2n1` yielded a melting point of 112 to 113 °C.
With `CCCCCC1(C)OCc2c1cnc(C)c2O` (stereo not given) the melting point was 222 °C.
In the case of `COC(=O)C(Oc1ccc(NC(C)=O)cc1)c1ccc(Oc2ccc(Cl)cc2)cc1` (stereo not given), the melting point is reported as 152 to 157 °C.
With `COC(=O)CSc1nc(N2CCN(c3ccccn3)CC2)ncc1[N+](=O)[O-]` the melting point was 199 to 202 °C.
`C=CCN1C(=O)CSC1=NOC(=O)NC` showed a melting point of 108 to 110 °C.
In the case of `COC(=O)c1nc(NC(=O)c2ccccn2)ccc1Oc1nc(OC)cc(OC)n1`, the melting point is reported as 146 to 150 °C.
In the case of `COc1cc(C=C2OC(C)=CC2=O)ccc1O`, the melting point is reported as 168 to 170 °C.
For `Clc1ccc(C#Cc2ccccc2)cn1`, the melting point was 70 to 72 °C.
`Cc1cc(CNS(=O)(=O)c2ccc(Br)s2)cc(C)n1` gave a melting point of 138 °C.
For `N#Cc1ccccc1C(C#N)c1ccc(F)cc1` (stereo not given), the melting point was 87 to 89 °C.
`Cc1csc2ccc(CO)cc12` showed a melting point of 51 to 53 °C.
For `O=c1[nH]cc2c(c1-c1ccc(O)cc1)Nc1ccccc1S2`, the melting point was > 300 °C.
`CCCCCCCCCCNc1nc(NCC(O)C2CC(C)(C)NC(C)(C)C2)nc(NCC(O)C2CC(C)(C)NC(C)(C)C2)n1` (stereo not given) gave a melting point of 106 to 107 °C.
`CN(CCO)c1cc(C(c2cc(F)ccc2F)S(=O)(=O)c2ccc(Cl)cc2)c(Cl)cn1` (stereo not given) gave a melting point of 88 to 89 °C.
In the case of `CC(=O)c1ccc(Oc2ccc(O)cc2)cc1`, the melting point is reported as 159 to 161 °C.
For `COc1cc(N)c2nc(C)cc(C)c2c1OC`, the melting point was 108 to 110 °C.
Work on `COc1ccc(S(=O)(=O)n2ccc3ccnc(-c4ccc(F)cc4)c32)cc1` yielded a melting point of 136 to 137 °C.
`Cc1c(CO)oc2c(Br)cccc12` showed a melting point of 103 °C.
Work on `CCOC(=O)C1=C(C)N(C(C)=O)C(c2csc(C)n2)=NC1c1ccc(C)cc1` (stereo not given) yielded a melting point of 187 to 188 °C.
For `Cn1nc(-c2ccc(F)cc2)c(-c2ccncc2)c1CCCc1ccccc1`, the melting point was 83 to 87 °C.
Molecule `CCN(CC)CC(=O)c1cc(C(=O)c2ccc3ccccc3c2)cn1C` has a melting point of 130 to 132 °C.
`CCCCc1ccc(NC=NO)c(C)c1` showed a melting point of 132 to 134 °C.
`COc1cc(OC)cc(N2CCN(C(=O)N(C)c3cc(C(C)OC)c(C)nc3OC)CC2)c1` (stereo not given) showed a melting point of 117 to 119 °C.
Molecule `O=C(O)COCC(Cc1ccccc1)NC(=O)OCc1ccccc1` (stereo not given) has a melting point of 96 to 100 °C.
`CNc1cc(Cl)c(C=O)c(Cl)c1` showed a melting point of 172 to 174 °C.
In the case of `CN1CC[C@@H]2CC(=O)c3cc(F)c(F)cc3[C@@H]2C1` (relative stereo), the melting point is reported as > 250 °C.
Molecule `Cc1c(-c2cc(Br)c(O)c(Br)c2)oc2ccc(OP(=O)(O)O)cc2c1=O` has a melting point of 258 to 260 °C.
`COC(=O)C1CCc2c(noc2-c2ccc(Cl)cc2)C1` (stereo not given) showed a melting point of 141 to 143 °C.
In the case of `COc1cc(Nc2nc3cccc(-c4ccc5[nH]cnc5c4)c3o2)cc(OC)c1OC`, the melting point is reported as 150 to 156 °C.
Molecule `CCOc1cc(OCCO)cc2c1C(=O)N(COC(=O)c1c(Cl)cccc1Cl)S2(=O)=O` has a melting point of 166 °C.
`FC(F)(F)CNc1ccc2c(c1)N1CCCN=C1S2` showed a melting point of 187 °C.
With `O=C(c1cccnc1)c1cc(-c2cccnc2)c(N2CCOCC2)s1` the melting point was 145 °C.
For `COc1cc2c(cc1OS(N)(=O)=O)CC(C)(C)N(C(=O)c1cc(OC)c(OC)c(OC)c1)C2C` (stereo not given), the melting point was 170 to 173 °C.
For `CC1CNc2ccc(NC3=NCCN3)c(Br)c2N1` (stereo not given), the melting point was 250 to 251 °C.
In the case of `CCCCOc1ccc(C(=O)N(C)Cc2cccc(-c3ccc(CC4SC(=O)NC4=O)cc3)c2)cc1` (stereo not given), the melting point is reported as 116 °C.
Work on `COc1ccc(-n2nc(Sc3cc(C)ccc3C)c(C)c(C#N)c2=O)cc1` yielded a melting point of 140 to 142 °C.
Molecule `CCOC(=O)c1cc2c(s1)-c1c(SC)sc(C(=O)OCC)c1CC2` has a melting point of 107 to 108 °C.
In the case of `CC1(C)CCC(C)(C)c2cc(CC#Cc3ccc(C(=O)O)cc3)ccc21`, the melting point is reported as 167 to 168 °C.
`Cc1cc(OCCc2nc(-c3ccccc3)oc2C)ccc1OC(C)(C)C(=O)O` showed a melting point of 117 °C.
Work on `Cc1cc(-c2cnn3c(C(F)(F)F)cc(-c4ccc(C(F)(F)F)c(C(F)(F)F)c4)nc23)ccn1` yielded a melting point of 223 °C.
In the case of `Cc1c(C)c2c(c(C)c1NC(=O)C(C)(C)C)C(c1ccc(C(C)C)cc1)CO2` (stereo not given), the melting point is reported as 177 to 178 °C.
Work on `CC(=O)Oc1ccc(N=c2scc(-c3ccc(Cl)c(S(=O)(=O)N(C)C)c3)n2C)cc1` yielded a melting point of 173 to 174 °C.
`COc1ccc(C(O)Cc2c(Cl)cncc2Cl)c2c1OC(C)(C)C2` (stereo not given) showed a melting point of 100 to 104 °C.
`COc1ccc(CN(CCN(C)CCCNC(=O)NCCSCc2csc(NC(=N)N)n2)c2ccccn2)cc1` gave a melting point of 106 to 109 °C.
`CC1(C)[C@@H](NCC(=O)N2C[C@@H](F)C[C@H]2C#N)CC[C@@]1(C)c1nc(-c2ccc(F)cc2)no1` gave a melting point of 127 to 131 °C.
Molecule `CCOC(=O)Cc1ccc(OCc2ccc3oc([N+](=O)[O-])c(-c4ccccc4)c3c2)cc1` has a melting point of 74 to 75 °C.
`COc1ccc2nc(-n3nc(CCCO)cc3-c3ccc(Cl)cc3)sc2c1` gave a melting point of 123 to 125 °C.
For `CCOC(=O)c1cc2cc(C=CC(=O)c3ccc(C)cc3)cc(C(C)CC)c2oc1=O` (stereo not given), the melting point was 155 to 156 °C.
